In patent US20260049105A1, “SELECTIVE MC4R LIGAND FOR TREATING OBESITY AND COGNITIVE LOSS” (ARIZONA BOARD OF REGENTS ON BEHALF OF THE UNIVERSITY OF …, priority 2022, published 2026):

Key:
hMC4R [1] = molecular target: T1, hMC4R (Homo sapiens, UniProt P32245); experiment: Adenylate cyclase (cAMP) assay in transfected HEK293 cells; format: cell-based; details: for Emax at 10 µM: HEK293, 0.05 h, hM4CR, percentage of cAMP produced at 10 μM in relation to MT-II, read-out: Act%
T1 construct: expressed in transfected cells; host or cells: HEK293
Method: The cells were seeded on 96 well plates 48 hours before the assay, (100,000 cells/well). For the assay, the medium was removed and cells were rinsed with 1 mL of MEM buffer (GIBCO) or with Earle's balanced salt solution (EBSS, GIBCO). An aliquot (0.4 mL) of Earle's balanced salt solution was placed in each well along with isobutylmethylxanthine (IBMX; 5 μL; 0.5 mM) for 1 minute at 37° C. Varying concentrations of melanotropins (0.1 mL) were added and the cells incubated for 3 minutes at 37° C. The reaction was stopped by aspirating the buffer and adding ice-cold Tris/EDTA buffer to each well (0.15 mL). The 96 well plates were covered and placed on ice. After dislodging the cells, the plates were placed in a boiling water bath for 15 minutes. The cell lysate was then centrifuged for 10 minutes (4000 rpm), and 50 μL of the supernatant was aliquoted into perkinElmer glass fiber filter plate. cAMP content was measured by competitive binding assay in addition to 50 μL H^3 cAMP and 100 μL PKA. Then the system was placed on ice for 2 hours and then vacuum and filtered. 100 μL of the OptiPhase Supermix scintillation fluid was added to the plate. The plates stayed for 8 hours and then read by MicroBeta radiation plate reader. IC50 and EC50 values represent the mean of duplicate experiments performed in triplicate. […] NA indicates 0% cAMP accumulation observed at 10 μM. The peptides were tested over a range of concentrations from 10^-10 to 10^-5 M.

hMC5R [2] = molecular target: T2, hMC5R (Homo sapiens, UniProt P33032); experiment: as above; format: cell-based; details: HEK293, 0.05 h; hM5CR; cAMP at 10 μM in relation to MT-II; read-out: Act %
T2 construct: expressed in transfected cells; host or cells: HEK293
Method: (§1) HEK293 cells transfected with human melanocortin receptors were grown to confluence in MEM medium (GIBCO) containing 10% fetal bovine serum, 100 units/mL penicillin and streptomycin, and 1 mM sodium pyruvate. The cells were seeded on 96 well plates 48 hours before the assay, (100,000 cells/well). For the assay, the medium was removed and cells were rinsed with 1 mL of MEM buffer (GIBCO) or with Earle's balanced salt solution (EBSS, GIBCO). An aliquot (0.4 mL) of Earle's balanced salt solution was placed in each well along with isobutylmethylxanthine (IBMX; 5 μL; 0.5 mM) for 1 minute at 37° C. Varying concentrations of melanotropins (0.1 mL) were added and the cells incubated for 3 minutes at 37° C. The reaction was stopped by aspirating the buffer and adding ice-cold Tris/EDTA buffer to each well (0.15 mL). The 96 well plates were covered and placed on ice. After dislodging the cells, the plates were placed in a boiling water bath for 15 minutes. The cell lysate was then centrifuged for 10 minutes (4000 rpm), and 50 μL of the supernatant was aliquoted into perkinElmer glass fiber filter plate. cAMP content was measured by competitive binding assay in addition to 50 μL H^3 cAMP and 100 μL PKA. Then the system was placed on ice for 2 hours and then vacuum and filtered. 100 μL of the OptiPhase Supermix scintillation fluid was added to the plate. The plates stayed for 8 hours and then read by MicroBeta radiation plate reader.
(§2) IC50 and EC50 values represent the mean of duplicate experiments performed in triplicate. IC50 and EC50 estimates and their associated standard errors were determined by fitting the data using nonlinear least-squares analysis, with the help of Graphpad Prism 6.0 (Graphpad Software, San Diego, CA).
(§3) NA indicates 0% cAMP accumulation observed at 10 μM. The peptides were tested over a range of concentrations from 10^-10 to 10^-5 M.

hMC1R [3] = molecular target: T3, hMC1R (Homo sapiens, UniProt Q01726); experiment: as above; format: cell-based; details: HEK293, 0.05 h; hM1CR; cAMP at 10 μM in relation to MT-II; read-out: Act %
T3 construct: expressed in transfected cells; host or cells: HEK293
Method: as §1, §2, §3

hMC3R [4] = molecular target: T4, hMC3R (Homo sapiens, UniProt P41968); experiment: as above; format: cell-based; details: HEK293, 0.05 h; hM3CR; cAMP at 10 μM in relation to MT-II; read-out: Act %
T4 construct: expressed in transfected cells; host or cells: HEK293
Method: as §1, §2, §3

hMC4R [5] = molecular target: T1, hMC4R; experiment: Competitive receptor binding assay, whole HEK293 cells, 125I-NDP-α-MSH; details: for inhibition at 10 µM: 40 min, hM4CR, percentage of [125I]NDP-α-MSH displacement at 10 μM, read-out: BE%
Method: (§4) Competition binding experiments were performed on whole cells. The transfected HEK293 cell line with hMC4Rs were seeded on 96 well plates, 48 hours before the assay, 100,000 cells/well. For the assay, the medium was removed and cells were washed twice with a freshly prepared binding buffer containing 100% minimum essential medium with Earle's salt (MEM, GIBCO), 25 mM HEPES (pH 7.4), 0.2% bovine serum albumin, 1 mM 1,10-phenanthroline, 0.5 mg/L leupeptin, and 200 mg/L bacitracin. […] The medium was subsequently removed and each well was washed twice with the assay buffer. The cells are lysed by the addition of 250 μL of 0.1 NaOH and 250 μL of 1% Triton X-100. […] Data were analyzed using Graphpad Prism 6.0 (Graphpad Software, San Diego, CA).
as §2, with “CA). […]” for “CA).”

hMC1R [6] = molecular target: T3, hMC1R; experiment: as above; details: for inhibition at 10 µM: 40 min, hM1CR, percentage of NDP-α-MSH displacement at 10 μM, read-out: BE %; for hMC1R binding affinity (in words): compared with the other analogues
Method: [The procedure below names another target; the source lists this target under the same test.] (§5) Competition binding experiments were performed on whole cells. The transfected HEK293 cell line with hMC4Rs were seeded on 96 well plates, 48 hours before the assay, 100,000 cells/well. For the assay, the medium was removed and cells were washed twice with a freshly prepared binding buffer containing 100% minimum essential medium with Earle's salt (MEM, GIBCO), 25 mM HEPES (pH 7.4), 0.2% bovine serum albumin, 1 mM 1,10-phenanthroline, 0.5 mg/L leupeptin, and 200 mg/L bacitracin. […] The medium was subsequently removed and each well was washed twice with the assay buffer. The cells are lysed by the addition of 250 μL of 0.1 NaOH and 250 μL of 1% Triton X-100. The lysed cell was transferred to the 12×75 mm glass tubes and the radioactivity was measured by Wallac 1470 WIZARD Gamma Counter. Data were analyzed using Graphpad Prism 6.0 (Graphpad Software, San Diego, CA).
as §2, §3

hMC3R [7] = molecular target: T4, hMC3R; experiment: as above; details: 40 min; hM3CR; percentage of NDP-α-MSH displacement at 10 μM; read-out: BE %
Method: [The procedure below names another target; the source lists this target under the same test.] as §5, §2, §3

hMC5R [8] = molecular target: T2, hMC5R; experiment: as above; details: 40 min; hM5CR; percentage of NDP-α-MSH displacement at 10 μM; read-out: BE %
Method: [The procedure below names another target; the source lists this target under the same test.] as §4, §2, §3

hMC4R [9] = molecular target: T1, hMC4R; experiment: Plasmon waveguide resonance (PWR) spectrum of hMC4R membranes with agonists
From the text: PWR uses polarized light generated from a CW He—Ne laser (λ=632.8 nm or λ=543.5 nm), which passes through a glass prism under total internal reflection conditions. A thin metal film (Ag), which is deposited on the external surface of the prism, is overcoated with another thin layer of SiO2 as dielectric media. When there is an object attached to the dielectric layer of SiO2, and polarized laser forms a specific incident angle with the outer surface layer, the resonant excitation of collective electronic oscillations (plasmons) happens and generates an evanescent electromagnetic field localized at the dielectric film, which gives the absorption spectrum at that specific angle. This can be used to probe the optical properties of molecules immobilized on the outer surface of the prism. Resonance is achieved either by varying the laser light wavelength at a fixed angle or by varying the angle at a fixed laser wavelength(we used the latter one in this research). Any changes of the immobilized yield distinct incident angle that evanescence happens in the dielectric layer. Due to the ability that laser light can be polarized to either parallel (p) or perpendicular (s) to the incident plane, characterization of the molecular organization of anisotropic systems can be fulfilled, such as biomembranes containing integral proteins. Under the experimental conditions described herein, the optical parameters obtained with the p-polarization refer to the perpendicular direction, and those obtained with s-polarization refer to the parallel direction, relative to the bilayer membrane surface.
Resonance spectra in this study were obtained using a PWR instrument from Biopeptek Pharmaceuticals LLC. […] Recombinant HEK293 cells expressing the hMC4R were grown to confluency. The confluent cell monolayers were then washed with Ca^2+ and Mg^2+-deficient phosphate-buffered saline and were harvested in the same buffer containing 0.02% ethylenediaminetetraacetic acid (EDTA). After centrifugation at 1500 g for 10 minutes, the cells were homogenized in an ice-cold 10 mM Tris-HCl buffer and 1 mM EDTA (pH 7.4). A crude membrane fraction was collected by centrifugation at 40,000 g for 20 minutes at −4° C. and was stored at −80° C. until use. Before the PWR experiment, the membrane fraction was resuspended in a 20 mM Tris-HCl buffer (pH 7.4) by mild homogenization. Protein concentration was determined by using a Bradford assay.
Under the experimental conditions employed herein, the oscillation of light with p-polarization reflects the dimension of objects perpendicular to the membrane, and those obtained under the s-polarization vector refer to the dimension in parallel with the bilayer membrane surface.

T3 sequence (Q01726 whole entry): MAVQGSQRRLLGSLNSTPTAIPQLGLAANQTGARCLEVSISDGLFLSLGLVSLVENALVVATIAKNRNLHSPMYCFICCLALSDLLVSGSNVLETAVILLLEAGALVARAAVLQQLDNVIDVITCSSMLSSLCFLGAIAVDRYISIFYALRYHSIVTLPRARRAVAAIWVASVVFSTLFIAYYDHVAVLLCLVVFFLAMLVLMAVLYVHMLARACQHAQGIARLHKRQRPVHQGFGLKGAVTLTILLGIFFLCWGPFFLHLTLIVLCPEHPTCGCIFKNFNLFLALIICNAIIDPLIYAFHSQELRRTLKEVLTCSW
T1 sequence (P32245 whole entry): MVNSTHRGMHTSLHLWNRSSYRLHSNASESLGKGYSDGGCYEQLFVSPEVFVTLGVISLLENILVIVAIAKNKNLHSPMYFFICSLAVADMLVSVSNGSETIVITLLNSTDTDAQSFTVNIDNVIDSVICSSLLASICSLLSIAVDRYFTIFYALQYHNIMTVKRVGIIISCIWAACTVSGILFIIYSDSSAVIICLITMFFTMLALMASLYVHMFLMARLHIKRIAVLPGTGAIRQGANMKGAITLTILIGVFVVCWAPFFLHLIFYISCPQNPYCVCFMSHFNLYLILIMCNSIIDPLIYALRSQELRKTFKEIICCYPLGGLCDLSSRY
T4 sequence (P41968 whole entry): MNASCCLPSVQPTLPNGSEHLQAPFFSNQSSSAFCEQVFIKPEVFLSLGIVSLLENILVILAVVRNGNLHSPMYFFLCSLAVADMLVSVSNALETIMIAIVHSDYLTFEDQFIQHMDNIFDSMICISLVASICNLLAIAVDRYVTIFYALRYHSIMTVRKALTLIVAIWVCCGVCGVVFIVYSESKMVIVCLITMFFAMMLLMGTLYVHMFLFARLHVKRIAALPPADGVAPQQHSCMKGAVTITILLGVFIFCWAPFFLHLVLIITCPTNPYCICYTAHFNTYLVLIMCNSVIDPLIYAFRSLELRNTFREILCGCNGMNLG
T2 sequence (P33032 whole entry): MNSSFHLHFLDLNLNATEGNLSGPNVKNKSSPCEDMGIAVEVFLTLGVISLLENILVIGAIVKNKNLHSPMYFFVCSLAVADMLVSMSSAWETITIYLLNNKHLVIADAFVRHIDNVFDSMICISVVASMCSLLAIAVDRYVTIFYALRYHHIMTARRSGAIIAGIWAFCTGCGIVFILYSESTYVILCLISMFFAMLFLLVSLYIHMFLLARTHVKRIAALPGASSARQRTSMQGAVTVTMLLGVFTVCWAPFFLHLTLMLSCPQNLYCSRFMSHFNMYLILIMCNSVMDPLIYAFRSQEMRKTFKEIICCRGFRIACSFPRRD

| Emax at 10 µM (hMC4R [1]) | Emax at 10 µM (hMC5R [2]) | Emax at 10 µM (hMC1R [3]) | Emax at 10 µM (hMC3R [4]) | inhibition at 10 µM (hMC4R [5]) | inhibition at 10 µM (hMC1R [6]) | hMC1R binding affinity (in words) (hMC1R [6]) | inhibition at 10 µM (hMC3R [7]) | inhibition at 10 µM (hMC5R [8]) | PWR peak location under p-polarization (hMC4R [9]; p-polarization, hMC4R sole 26.44) | PWR shift under s-polarization (in words) (hMC4R [9]; s-polarization) | selectivity for hMC4R (in words) (hMC4R [1]; comparing the EC50 of a compound for each receptor) | times higher in binding affinity to hMC4R than hMC1R (hMC4R [5]; hMC4R vs hMC1R) | times higher in binding affinity to hMC4R than hMC3R (hMC4R [5]; hMC4R vs hMC3R) | times higher in binding affinity to hMC4R than hMC5R (hMC4R [5]; hMC4R vs hMC5R) | SMILES | PWR left shift under p-polarization relative to hMC4R sole (hMC4R [9]; p-polarization, left shifted) | PWR absorbance location under s-polarization (hMC4R [9]; s-polarization, sole MC4R 33.29) |
| --- | --- | --- | --- | --- | --- | --- | --- | --- | --- | --- | --- | --- | --- | --- | --- | --- | --- |
| 120% | 51% | 61% | 49% | 59% | 0% | lower binding affinities than the others | 39% | 90% | – | – | – | – | – | – | CC(=O)N[C@@H](CCCNC(=N)N)C(=O)N[C@H]1CC(=O)NCCCC[C@@H](C(N)=O)NC(=O)C[C@H](Cc2c[nH]c3ccccc23)NC(=O)C[C@H](CCCNC(=N)N)NC(=O)[C@@H](Cc2ccc(F)cc2)NC(=O)[C@@H]2CCCCN2C1=O [compound 6, Ac-Arg-cyclo[Asp-Pip-D-Phe(4-F)-βArg-BTrp-Lys]-NH2] | – | – |
| 46% | 72% | 90% | 76% | 9% | 100% | – | 100% | 100% | – | – | – | – | – | – | CC(=O)N[C@@H](CCCNC(=N)N)C(=O)N[C@H]1CC(=O)NCCCC[C@@H](C(N)=O)NC(=O)C[C@H](Cc2c[nH]c3ccccc23)NC(=O)[C@H](CCCNC(=N)N)NC(=O)[C@@H](Cc2ccc(F)cc2)NC(=O)[C@@H]2CCCCN2C1=O [compound 4, Ac-Arg-cyclo[Asp-Pip-D-Phe(4-F)-Arg-BTrp-Lys]-NH2] | – | – |
| 87% | 76% | 90% | 63% | 100% | 100% | lower binding affinities than the others | 10% | 75% | 26.95 | no significant change | selective agonist of hMC4R | about 68 times | over 1000 times | over 1000 times | CC(=O)N[C@@H](CCCNC(=N)N)C(=O)N[C@H]1CC(=O)NCCCC[C@@H](C(N)=O)NC(=O)C[C@H](Cc2c[nH]c3ccccc23)NC(=O)C[C@H](CCCNC(=N)N)NC(=O)[C@@H](Cc2ccc(Cl)cc2)NC(=O)[C@@H]2CCCCN2C1=O [compound 9, Ac-Arg-cyclo[Asp-Pip-D-Phe(4-Cl)-βArg-BTrp-Lys]-NH2] | – | – |
| 66% | 38% | 89% | 46% | 100% | 100% | – | 100% | 0% | – | – | – | – | – | – | CC(=O)N[C@@H](CCCNC(=N)N)C(=O)N[C@H]1CC(=O)NCCCC[C@@H](C(N)=O)NC(=O)[C@H](Cc2c[nH]c3ccccc23)NC(=O)C[C@H](CCCNC(=N)N)NC(=O)[C@@H](Cc2ccc(Cl)cc2)NC(=O)[C@@H]2CCCCN2C1=O [compound 8, Ac-Arg-cyclo[Asp-Pip-D-Phe(4-Cl)-βArg-Trp-Lys]-NH2] | – | – |
| 57% | 21% | 67% | 24% | 100% | 100% | – | 70% | 0% | – | – | – | – | – | – | CC(=O)N[C@@H](CCCNC(=N)N)C(=O)N[C@H]1CC(=O)NCCCC[C@@H](C(N)=O)NC(=O)C[C@H](Cc2c[nH]c3ccccc23)NC(=O)[C@H](CCCNC(=N)N)NC(=O)[C@@H](Cc2ccc(Cl)cc2)NC(=O)[C@@H]2CCCCN2C1=O [compound 7, Ac-Arg-cyclo[Asp-Pip-D-Phe(4-Cl)-Arg-BTrp-Lys]-NH2] | – | – |
| 84% | 82% | 82% | 87% | 100% | 30% | lower binding affinities than the others | 100% | 46% | – | – | – | – | – | – | CC(=O)N[C@@H](CCCNC(=N)N)C(=O)N[C@H]1CC(=O)NCCCC[C@@H](C(N)=O)NC(=O)C[C@H](Cc2c[nH]c3ccccc23)NC(=O)C[C@H](CCCNC(=N)N)NC(=O)[C@@H](Cc2ccccc2)NC(=O)[C@@H]2CCCCN2C1=O [compound 3, Ac-Arg-cyclo[Asp-Pip-D-Phe-βArg-BTrp-Lys]-NH2] | – | – |
| – | – | – | – | – | – | – | – | – | – | – | – | – | – | – | CC(=O)N[C@@H](CCCNC(=N)N)C(=O)N[C@H]1CSSC[C@@H](C(N)=O)NC(=O)[C@H](Cc2c[nH]c3ccccc23)NC(=O)[C@H](CCCNC(=N)N)NC(=O)[C@@H](Cc2ccccc2)NC(=O)[C@H](Cc2c[nH]cn2)NC(=O)[C@@H](C)NC1=O [RM493, reference compound] | 0.25 degrees | 32.97 |
| 67% | 90% | 120% | 89% | 100% | 100% | – | 24% | 0% | – | – | – | – | – | – | CC(=O)N[C@@H](CCCNC(=N)N)C(=O)N[C@H]1CC(=O)NCCCC[C@@H](C(N)=O)NC(=O)[C@H](Cc2c[nH]c3ccccc23)NC(=O)C[C@H](CCCNC(=N)N)NC(=O)[C@@H](Cc2ccccc2)NC(=O)[C@@H]2CCCCN2C1=O [compound 2, Ac-Arg-cyclo[Asp-Pip-D-Phe-βArg-Trp-Lys]-NH2] | – | – |
